Test results as given in US11331351B2, “Bacillus strains improving health and performance of production animals” (priority 2015, dated 2022).
Converted amounts (≈) assume the structure as drawn. Read-outs that look alike come from different tables or passages of the source.

What was measured:
[1] = tested on: B. subtilis DSM 29871; format: cell-based, Bacillus subtilis; conditions: Bacillus subtilis, DSM29871, 37° C., 20-24 h
[2] = tested on: B. amyloliquefaciens DSM 29869; format: cell-based, Bacillus amyloliquefaciens; conditions: 37° C., 20-24 h; for MIC: Bacillus amyloliquefaciens, DSM29869
[3] = tested on: B. subtilis DSM 29870; format: cell-based, Bacillus subtilis; conditions: Bacillus subtilis, DSM29870, 37° C., 20-24 h
[4] = tested on: B. subtilis DSM 29871; conditions: EFSA Journal 2012; 10(6): 2740; cited from earlier work
[5] = tested on: B. amyloliquefaciens DSM 29869; conditions: EFSA Journal 2012; 10(6): 2740; cited from earlier work
[6] = tested on: B. subtilis DSM 29870; conditions: EFSA Journal 2012; 10(6): 2740; cited from earlier work
[7] = biological replicate MIC 1, read-out: MIC 1
[8] = biological replicate MIC 2, read-out: MIC 2
[9] = biological replicate MIC 3, read-out: MIC 3

Row | Compound | MIC [1, 7] | MIC [1, 8] | MIC [1, 9] | MIC [2, 7] | MIC [2, 8] | MIC [2, 9] | MIC 1 ([2]; biological replicate MIC 1) | MIC [3, 7] | MIC [3, 8] | MIC [3, 9] | EFSA breakpoints [4] | EFSA breakpoints [5] | EFSA breakpoints [6]
1 | CN(C)[C@@H]1C(O)=C(C(N)=O)C(=O)[C@@]2(O)C(O)=C3C(=O)c4c(O)cccc4[C@@](C)(O)[C@H]3C[C@@H]12 [Tetracycline] | 2 µg/mL (≈ 4.5 µM) | 4 µg/mL (≈ 9 µM) | 4 µg/mL (≈ 9 µM) | 16 µg/mL (≈ 36 µM) | 8 µg/mL (≈ 18 µM) | 8 µg/mL (≈ 18 µM) | 16 µg/mL (≈ 36 µM) | 0.25 µg/mL (≈ 0.563 µM) | 0.25 µg/mL (≈ 0.563 µM) | 0.25 µg/mL (≈ 0.563 µM) | – | – | –
2 | NC[C@H]1O[C@H](O[C@H]2[C@H](O)[C@@H](O[C@H]3O[C@H](CO)[C@@H](O)[C@H](N)[C@H]3O)[C@H](N)C[C@@H]2N)[C@H](O)[C@@H](O)[C@@H]1O [Kanamycin] | 2 µg/mL (≈ 4.13 µM) | 1 µg/mL (≈ 2.06 µM) | 2 µg/mL (≈ 4.13 µM) | 2 µg/mL (≈ 4.13 µM) | 0.5 µg/mL (≈ 1.03 µM) | 0.5 µg/mL (≈ 1.03 µM) | – | 2 µg/mL (≈ 4.13 µM) | 1 µg/mL (≈ 2.06 µM) | 2 µg/mL (≈ 4.13 µM) | – | – | –
3 | [H]/N=C(/N)N[C@H]1[C@H](O)[C@@H](O)[C@H](O[C@@H]2O[C@@H](C)[C@](O)(C=O)[C@H]2O[C@@H]2O[C@@H](CO)[C@H](O)[C@@H](O)[C@@H]2NC)[C@@H](N/C(N)=N\[H])[C@@H]1O [Streptomycin] | 32 µg/mL (≈ 55 µM) | 16 µg/mL (≈ 27.5 µM) | 32 µg/mL (≈ 55 µM) | 2 µg/mL (≈ 3.44 µM) | 4 µg/mL (≈ 6.88 µM) | 4 µg/mL (≈ 6.88 µM) | – | 4 µg/mL (≈ 6.88 µM) | 4 µg/mL (≈ 6.88 µM) | 8 µg/mL (≈ 13.8 µM) | 8 µg/mL | 8 µg/mL | 8 µg/mL
4 | CC[C@H]1OC(=O)[C@H](C)[C@@H](O[C@H]2C[C@@](C)(OC)[C@@H](O)[C@H](C)O2)[C@H](C)[C@@H](O[C@@H]2O[C@H](C)C[C@H](N(C)C)[C@H]2O)[C@](C)(O)C[C@@H](C)C(=O)[C@H](C)[C@@H](O)[C@]1(C)O [Erythromycin] | 0.125 µg/mL (≈ 0.17 µM) | 0.125 µg/mL (≈ 0.17 µM) | 0.125 µg/mL (≈ 0.17 µM) | 0.5 µg/mL (≈ 0.681 µM) | 0.06 µg/mL (≈ 0.0818 µM) | 0.06 µg/mL (≈ 0.0818 µM) | – | 0.125 µg/mL (≈ 0.17 µM) | 0.125 µg/mL (≈ 0.17 µM) | 0.125 µg/mL (≈ 0.17 µM) | 4 µg/mL | 4 µg/mL | 4 µg/mL
